In patent publication US9023789B2, “Amylin analogs and pharmaceutical compositions thereof” (Novo Nordisk A/S, priority 2012, dated 2015):
Numbered stars: 1 amine (or outer) side, 2 acyl side, 3 side chain; on linkers, the order of the positions; unused ones are H or OH. Bridge positions count the residues as written; N and C are the ends. Side chains are listed from the residue outwards. Peptide text beside a SMILES is read from it. * marks the point of attachment. C20 diacid = O=C(O)CCCCCCCCCCCCCCCCCCC(=O)*; γGlu = O=C(O)[C@H](CCC(=O)[*:2])N[*:1]; AEEA = NCCOCCOCC(=O)O

Experiments:
[1] = target: T1, human calcitonin (a) receptor in BHK570 cells (Homo sapiens, UniProt P30988); assay: ASSAY (II)a functional assay, human calcitonin receptor (CRE luciferase); type: cell-based; details: read-out: hCTR funct. EC50
T1 construct: expressed in transfected cells
T1 sequence (P30988 25-474): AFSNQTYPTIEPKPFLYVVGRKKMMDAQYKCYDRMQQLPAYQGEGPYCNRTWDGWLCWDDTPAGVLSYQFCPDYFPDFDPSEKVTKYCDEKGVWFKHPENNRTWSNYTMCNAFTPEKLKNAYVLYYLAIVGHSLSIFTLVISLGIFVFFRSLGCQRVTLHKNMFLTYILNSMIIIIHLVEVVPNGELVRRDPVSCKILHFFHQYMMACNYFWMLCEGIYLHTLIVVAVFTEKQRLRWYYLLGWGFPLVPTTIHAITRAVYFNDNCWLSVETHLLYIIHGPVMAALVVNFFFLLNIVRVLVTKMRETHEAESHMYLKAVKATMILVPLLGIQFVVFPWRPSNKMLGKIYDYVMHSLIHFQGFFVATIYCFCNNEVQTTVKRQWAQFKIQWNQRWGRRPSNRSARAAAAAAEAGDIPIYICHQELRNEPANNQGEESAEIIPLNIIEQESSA
Outline: (§1)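 Receptor activation is measured as cAMP-driven CRE-luciferase expression in BHK cells expressing the calcitonin receptor, with RAMP-3 co-expressed to form the amylin 3(a) receptor. Cells are exposed to compound for 3 hours at 37° C, and luciferase is then quantified by luminescence.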

[2] = target: T2, human amylin 3(a) receptor (human calcitonin receptor + RAMP-3) in BHK570 cells (Homo sapiens, UniProt O60896+P30988); assay: ASSAY (II)a functional assay, human amylin receptor (CRE luciferase); type: cell-based; details: for EC50: human amylin receptor functional potency, assay (II), read-out: hAmylin-R funct. EC50
T2 construct: expressed in transfected cells
Outline: as §1

[3] = target: T3, human amylin receptor (membranes from Amylin 3(a)/CRE-luc cells) (Homo sapiens, UniProt O60896+P30988); assay: ASSAY (V) binding to the human amylin receptor (SPA, 125I-rat amylin); details: for IC50: Table 4, read-out: hAmylin-R bind IC50;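 for all read-outs here: competition binding of cell membranes (35 ng/µL) mixed with SPA beads in 384-well plates at 40 µL total volume, read by scintillation counting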
T3 construct: expressed in transfected cells
T3 sequence (P30988 25-474): T1 sequence (P30988 25-474)
T3 sequence (O60896 24-148 partner): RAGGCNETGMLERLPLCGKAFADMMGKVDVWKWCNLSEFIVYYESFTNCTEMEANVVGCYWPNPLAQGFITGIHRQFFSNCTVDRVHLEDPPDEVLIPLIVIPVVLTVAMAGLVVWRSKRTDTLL

[4] = target: T4, rat calcitonin receptor (Rattus norvegicus, UniProt P32214); assay: ASSAY (VIII) binding to the rat calcitonin receptor; details: Table 7, read-out: rCTR bind IC50
T4 construct: expressed in transfected cells; host or cells: BHK tk'ts 13 (transient, FuGENE 6), membranes
T4 sequence (P32214 25-479 isoform P32214-2 limits assumed): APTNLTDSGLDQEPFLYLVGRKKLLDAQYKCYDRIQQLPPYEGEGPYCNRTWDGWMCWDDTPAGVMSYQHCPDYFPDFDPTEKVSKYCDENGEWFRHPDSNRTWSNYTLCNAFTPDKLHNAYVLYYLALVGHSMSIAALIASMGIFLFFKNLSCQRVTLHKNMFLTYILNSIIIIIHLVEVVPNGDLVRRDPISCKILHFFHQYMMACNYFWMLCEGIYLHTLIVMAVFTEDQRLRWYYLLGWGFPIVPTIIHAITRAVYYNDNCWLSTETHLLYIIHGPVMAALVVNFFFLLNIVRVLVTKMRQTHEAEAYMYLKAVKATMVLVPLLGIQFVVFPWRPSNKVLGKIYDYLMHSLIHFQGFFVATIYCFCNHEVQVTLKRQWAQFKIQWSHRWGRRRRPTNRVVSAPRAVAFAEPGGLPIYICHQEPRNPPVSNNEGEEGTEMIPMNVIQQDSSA
Outline: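 Cell membranes for binding came from BHK tk′ts 13 cells harvested approximately 48 hours after transient transfection with the rat receptor.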

[5] = hCTR funct. EC50 divided by hAmylin-R funct. EC50
[6] = hCTR funct. EC50 over hAmylin-R funct. EC50
[7] = human functional selectivity: hCTR funct. EC50 / hAmylin-R funct. EC50
[8] = Table 5, selectivity, hCTR bind IC50 / hAmylin-R bind IC50
[9] = Table 5a, selectivity, hCTR bind IC50 / hAmylin-R bind IC50
[10] = Table 7, human binding selectivity, included for comparison
[11] = Table 7a (preferred compounds), human binding selectivity, included for comparison
[12] = ratio of human calcitonin receptor binding IC50 to human amylin receptor binding IC50
[13] = hCTR funct. EC50 / hAmylin-R funct. EC50

Structure (SMILES) | EC50 [1] | Ratio hCT/hAmylin funct. [2, 5] | Ratio hCT/hAmylin funct. [2, 6] | EC50 [2] | Ratio hCT/hAmylin funct. [2, 7] | IC50 [3] | Ratio hCT/hAmylin binding [3, 8] | Ratio hCT/hAmylin binding [3, 9] | Ratio hCT/hAmylin binding ([3]; Table 5b, selectivity, hCTR bind IC50 / hAmylin-R bind IC50) | Ratio hCT/hAmylin binding ([3]; Table 5c, selectivity, hCTR bind IC50 / hAmylin-R bind IC50) | Ratio hCT/hAmylin binding [3, 10] | Ratio hCT/hAmylin binding [3, 11] | Ratio hCT/hAmylin binding [3, 12] | IC50 [4] | Ratio hCT/hAmylin funct. [2, 13]
CC[C@H](C)[C@H](NC(=O)[C@H](C)NC(=O)CNC(=O)[C@H](Cc1ccccc1)NC(=O)[C@H](CC(N)=O)NC(=O)[C@@H]1CCCN1C(=O)[C@H](CO)NC(=O)[C@H](CO)NC(=O)[C@H](Cc1c[nH]cn1)NC(=O)[C@H](CCCNC(=N)N)NC(=O)[C@H](CC(C)C)NC(=O)[C@H](Cc1ccccc1)NC(=O)[C@H](CCC(=O)O)NC(=O)[C@H](C)NC(=O)[C@H](CC(C)C)NC(=O)[C@H](CCCNC(=N)N)NC(=O)[C@H](CCC(N)=O)NC(=O)[C@@H](NC(=O)[C@H](C)NC(=O)[C@@H]1CSSC[C@H](NC(=O)[C@H](CCCCN)NC(=O)CC[C@H](NC(=O)CC[C@H](NC(=O)CCCCCCCCCCCCCCCCCCC(=O)O)C(=O)O)C(=O)O)C(=O)N[C@@H](CC(N)=O)C(=O)N[C@@H]([C@@H](C)O)C(=O)N[C@@H](C)C(=O)N[C@@H]([C@@H](C)O)C(=O)N1)[C@@H](C)O)C(=O)N1CCC[C@H]1C(=O)N[C@@H](CO)C(=O)N[C@@H](CO)C(=O)N[C@H](C(=O)N[C@@H](CC(N)=O)C(=O)N[C@H](C(=O)NCC(=O)N[C@@H](CO)C(=O)N[C@@H](CC(N)=O)C(=O)N[C@H](C(=O)N[C@@H](Cc1ccc(O)cc1)C(N)=O)[C@@H](C)O)C(C)C)[C@@H](C)O [Example 15] ({C20 diacid-γGlu-γGlu}-KCNTATCATQRLAEFLRHSSPNFGAIPSSTNVGSNTY-NH2; disulfide 2-7 (inferred)) | 3430 pM | 8.9 | 8.9 | 386 pM | 8.9 | 597 pM | 26.0 | 26.0 | 26.0 | 26.0 | 26.0 | 26.0 | 26.0 |  | 
CC[C@H](C)[C@H](NC(=O)[C@H](C)NC(=O)CNC(=O)[C@H](Cc1ccccc1)NC(=O)[C@H](CC(N)=O)NC(=O)[C@@H]1CCCN1C(=O)[C@H](CO)NC(=O)[C@H](CO)NC(=O)[C@H](Cc1c[nH]cn1)NC(=O)[C@H](CCCNC(=N)N)NC(=O)[C@H](CC(C)C)NC(=O)[C@H](Cc1ccccc1)NC(=O)[C@H](CCC(=O)O)NC(=O)[C@H](C)NC(=O)[C@H](CC(C)C)NC(=O)[C@H](CCCNC(=N)N)NC(=O)[C@H](CCC(N)=O)NC(=O)[C@@H](NC(=O)[C@H](C)NC(=O)[C@@H]1CSSC[C@H](NC(=O)[C@H](CCCCN)NC(=O)CC[C@H](NC(=O)CCCCCCCCCCCCCCCCCCC(=O)O)C(=O)O)C(=O)N[C@@H](CC(N)=O)C(=O)N[C@@H]([C@@H](C)O)C(=O)N[C@@H](C)C(=O)N[C@@H]([C@@H](C)O)C(=O)N1)[C@@H](C)O)C(=O)N1CCC[C@H]1C(=O)N[C@@H](CO)C(=O)N[C@@H](CO)C(=O)N[C@H](C(=O)N[C@@H](CC(N)=O)C(=O)N[C@H](C(=O)NCC(=O)N[C@@H](Cc1c[nH]cn1)C(=O)N[C@@H](CC(N)=O)C(=O)N[C@H](C(=O)N[C@@H](Cc1ccc(O)cc1)C(N)=O)[C@@H](C)O)C(C)C)[C@@H](C)O [Example 17] ({C20 diacid-γGlu}-KCNTATCATQRLAEFLRHSSPNFGAIPSSTNVGHNTY-NH2; disulfide 2-7 (inferred)) | 2350 pM | 8.8 | 8.8 | 268 pM | 8.8 | 878 pM | 12.5 | 12.5 |  |  | 12.5 | 12.5 | 12.5 | 97200 pM | 
CC[C@H](C)[C@H](NC(=O)[C@H](C)NC(=O)CNC(=O)[C@H](Cc1ccccc1)NC(=O)[C@H](CC(N)=O)NC(=O)[C@@H]1CCCN1C(=O)[C@H](CO)NC(=O)[C@H](CO)NC(=O)[C@H](Cc1c[nH]cn1)NC(=O)[C@H](CCCNC(=N)N)NC(=O)[C@H](CC(C)C)NC(=O)[C@H](Cc1ccccc1)NC(=O)[C@H](CCC(=O)O)NC(=O)[C@H](C)NC(=O)[C@H](CC(C)C)NC(=O)[C@H](CCCNC(=N)N)NC(=O)[C@H](CCC(N)=O)NC(=O)[C@@H](NC(=O)[C@H](C)NC(=O)[C@@H]1CSSC[C@H](NC(=O)[C@H](CCCCN)NC(=O)COCCOCCNC(=O)COCCOCCNC(=O)CC[C@H](NC(=O)CCCCCCCCCCCCCCCCCCC(=O)O)C(=O)O)C(=O)N[C@@H](CC(N)=O)C(=O)N[C@@H]([C@@H](C)O)C(=O)N[C@@H](C)C(=O)N[C@@H]([C@@H](C)O)C(=O)N1)[C@@H](C)O)C(=O)N1CCC[C@H]1C(=O)N[C@@H](CO)C(=O)N[C@@H](CO)C(=O)N[C@H](C(=O)N[C@@H](CC(N)=O)C(=O)N[C@H](C(=O)NCC(=O)N[C@@H](CO)C(=O)N[C@@H](CC(N)=O)C(=O)N[C@H](C(=O)N1CCC[C@H]1C(N)=O)[C@@H](C)O)C(C)C)[C@@H](C)O [Example 20] ({C20 diacid-γGlu-AEEA-AEEA}-KCNTATCATQRLAEFLRHSSPNFGAIPSSTNVGSNTP-NH2; disulfide 2-7) | 285 pM | 3.6 | 3.6 | 80 pM | 3.6 | 217 pM | 3.6 |  |  |  | 3.6 |  |  |  | 3.6
CC[C@H](C)[C@H](NC(=O)[C@H](C)NC(=O)CNC(=O)[C@H](Cc1ccccc1)NC(=O)[C@H](CC(N)=O)NC(=O)[C@@H]1CCCN1C(=O)[C@H](CO)NC(=O)[C@H](CO)NC(=O)[C@H](Cc1c[nH]cn1)NC(=O)[C@H](CCCNC(=N)N)NC(=O)[C@H](CC(C)C)NC(=O)[C@H](Cc1ccccc1)NC(=O)[C@H](Cc1c[nH]cn1)NC(=O)[C@H](C)NC(=O)[C@H](CC(C)C)NC(=O)[C@H](CCCNC(=N)N)NC(=O)[C@H](CCC(N)=O)NC(=O)[C@@H](NC(=O)[C@H](C)NC(=O)[C@@H]1CSSC[C@H](NC(=O)[C@@H](N)CCCCNC(=O)CC[C@H](NC(=O)CCCCCCCCCCCCCCCCCCC(=O)O)C(=O)O)C(=O)N[C@@H](CC(N)=O)C(=O)N[C@@H]([C@@H](C)O)C(=O)N[C@@H](C)C(=O)N[C@@H]([C@@H](C)O)C(=O)N1)[C@@H](C)O)C(=O)N1CCC[C@H]1C(=O)N[C@@H](CO)C(=O)N[C@@H](CO)C(=O)N[C@H](C(=O)N[C@@H](CC(N)=O)C(=O)N[C@H](C(=O)NCC(=O)N1CCC[C@H]1C(=O)N[C@@H](CC(N)=O)C(=O)N[C@H](C(=O)N1CCC[C@H]1C(N)=O)[C@@H](C)O)C(C)C)[C@@H](C)O [Example 115] (H-K([γGlu-C20 diacid])CNTATCATQRLAHFLRHSSPNFGAIPSSTNVGPNTP-NH2; disulfide 2-7 (inferred); N-terminus assumed) | 40 pM | 0.8 | 0.8 | 52 pM | 0.8 | 131 pM | 1.2 |  |  |  | 1.2 |  |  |  | 0.8
